Test [1] deals with rat brain. Kind of test: PA recording of neural activity index during NMDA infusion. The test is classed as in vivo, Sprague Dawley rats. An excerpt:
(§1) 3.1.1 Animal preparation. For the in vivo experiments, 8-9-week-old male Sprague Dawley rats weighing 275-390 g were used (Charles Rivers Laboratory, Inc., MA, United States). The use of animals for the proposed experimental protocol was approved by the Institutional Research Board Committee of Johns Hopkins Medical Institute (RA16M225). The hair was shaved from the scalp of each rat for improved optical/acoustic coupling for transcranial PA recording. The head of the anesthetized rat was fixed to a stable position using a standard stereotaxic device. This fixation procedure was required to prevent any unpredictable movement during PA recording of neural activities.
3.1.3 In vivo experimental protocol. The in vivo protocol was designed to have two different phases: baseline and NMDA infusion (FIG. 22B). PA data acquisition was continuously performed for 40 min to be correlated with the glutamate concentration change measured by microdialysis with 20-min intervals. The baseline phase was designed to confirm its stable neural activity before the NMDA infusion. […]

Test [2] relates to rat brain. Kind of test: Microdialysis of extracellular glutamate during NMDA infusion. The test is classed as in vivo, Sprague Dawley rats. To be noted: NMDA infusion phase, 0.3-mM NMDA via microdialysis probe; baseline phase 0.557 μM.
From the text: as §1
3.1.2 Microdialysis setup. The microdialysis probe consists of a shaft with a semipermeable hollow membrane tip, which is connected to inlet and outlet tubing. The extracellular fluid samples were continuously acquired before and after the infusion of 0.3-mM NMDA through the inlet of the microdialysis probe (FIG. 22A). Each acquisition of extracellular fluid sample took 20 min with 2 μL/min flow rate. From the samples, the change of glutamate concentration was measured.
3.1.3 In vivo experimental protocol. […] PA data acquisition was continuously performed for 40 min to be correlated with the glutamate concentration change measured by microdialysis with 20-min intervals. […]

The structures appear in SMILES notation. Where “and” joins values, the source holds several entries; their conditions need not be identical. Equal entries are not always repeated.

This is an account of results in patent US20210393807A1, “PHOTOACOUSTIC VOLTAGE-SENSITIVE DYES FOR IN VIVO IMAGING” (The Johns Hopkins University, priority 2016, published 2021).

Regarding `CN[C@H](CC(=O)O)C(=O)O` [NMDA], in the test with rat brain [1] (30 min of NMDA infusion, after VSD and Lexiscan administration), the “increase of neural activity index estimated by PA recording” value was “up to 3.27 times”. Also, the “time at which the increase of index is saturated” value in the test with rat brain [1] (from the start of NMDA infusion) fell in the range of 10 to 15 min. In the test with rat brain [2], the extracellular glutamate concentration is 0.000643 mM and 0.000648 mM.
